What was measured:
Test in all cases: relative viability (nuclei count vs DMSO), 5 days (fraction); higher = more cells survive
AT-7519 + Luminespib = compound: O=C(NC1CCNCC1)c1n[nH]cc1NC(=O)c1c(Cl)cccc1Cl [AT-7519] + CCNC(=O)c1noc(-c2cc(C(C)C)c(O)cc2O)c1-c1ccc(CN2CCOCC2)cc1 [Luminespib] (partner 0.01 µM)
Summary of the method: (§1)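 Dosing by pin tool came one day after lung cancer cell lines were seeded in 1536-well plates, using either one drug or a fixed anchor-drug dose plus five library-drug doses (not always all listed) in √10 steps. After 5 days, nuclei were counted on 4× images. Relative viability is treated-well nuclei count divided by vehicle-well nuclei count, and values are medians of duplicate plates.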

[1] = compound: C1=CC2=C(C=C(C(=C2N=C1)O)N=NC3=CC4=C(C=C3)C=C(C=C4)S(=O)(=O)O)S(=O)(=O)O + CC1(C)CCC(c2ccc(Cl)cc2)=C(CN2CCN(c3ccc(C(=O)NS(=O)(=O)c4ccc(N[C@H](CCN5CCOCC5)CSc5ccccc5)c(S(=O)(=O)C(F)(F)F)c4)cc3)CC2)C1 [Navitoclax] (partner 0.5 µM)
Summary of the method: as §1

[2] = compound: C1=CC2=C(C=C(C(=C2N=C1)O)N=NC3=CC4=C(C=C3)C=C(C=C4)S(=O)(=O)O)S(=O)(=O)O + CS(=O)(=O)CCNCc1ccc(-c2ccc3ncnc(Nc4ccc(OCc5cccc(F)c5)c(Cl)c4)c3c2)o1 [Lapatinib] (partner 2 µM)
Summary of the method: as §1

AT-7519 + Dasatinib = compound: O=C(NC1CCNCC1)c1n[nH]cc1NC(=O)c1c(Cl)cccc1Cl [AT-7519] + Cc1nc(Nc2ncc(C(=O)Nc3c(C)cccc3Cl)s2)cc(N2CCN(CCO)CC2)n1 [Dasatinib] (partner 0.075 µM)
Summary of the method: as §1

Row | Cell Line | relative viability (AT-7519 + Luminespib; first compound 0.01 µM) | relative viability (AT-7519 + Luminespib; first compound 0.03162 µM) | relative viability (AT-7519 + Luminespib; first compound 0.3162 µM) | relative viability (AT-7519 + Luminespib; first compound 1 µM) | relative viability ([1]; first compound 0.08 µM) | relative viability ([1]; first compound 0.253 µM) | relative viability ([1]; first compound 0.8 µM) | relative viability ([1]; first compound 2.53 µM) | relative viability ([1]; first compound 8 µM) | relative viability ([2]; first compound 0.08 µM) | relative viability ([2]; first compound 0.253 µM) | relative viability ([2]; first compound 0.8 µM) | relative viability ([2]; first compound 2.53 µM) | relative viability ([2]; first compound 8 µM) | relative viability (AT-7519 + Dasatinib; first compound 0.01 µM) | relative viability (AT-7519 + Dasatinib; first compound 0.03162 µM) | relative viability (AT-7519 + Dasatinib; first compound 0.3162 µM) | relative viability (AT-7519 + Dasatinib; first compound 1 µM)
1 | NCI-H2009 | 1.03 | 1.03 | 1.02 | 0.881 | 1.19 | 1.1 | 1.08 | 1.14 | 1.18 | 0.898 | 0.889 | 0.871 | 0.884 | 0.836 | 0.282 | 0.279 | 0.234 | 0.157
2 | LOU-NH91 | 0.356 | 0.312 | 0.351 | 0.281 | 0.72 | 0.672 | 0.704 | 0.723 | 0.687 | 0.868 | 0.79 | 0.755 | 0.781 | 0.781 | 0.613 | 0.6 | 0.604 | 0.511
3 | NCI-H2405 | 0.713 | 0.718 | 0.592 | 0.281 | 0.86 | 0.746 | 0.959 | 0.993 | 0.788 | 1.04 | 1.07 | 0.979 | 1.02 | 1 | 0.203 | 0.216 | 0.199 | 0.219
4 | LCLC-97TM1 | 0.976 | 0.692 | 0.788 | 0.285 |  | 0.224 |  | 0.509 | 0.41 |  | 0.665 |  | 0.835 | 1.04 | 0.911 | 0.791 | 0.763 | 0.396
5 | NCI-H596 | 0.988 | 1 | 0.846 | 0.827 | 0.946 | 0.973 | 1.06 | 0.964 | 1.01 | 1.11 | 1.02 | 0.977 | 1.01 | 1.01 | 0.586 | 0.501 | 0.629 | 0.612
6 | NCI-H727 | 0.343 | 0.339 | 0.279 | 0.24 | 0.358 | 0.378 | 0.415 | 0.453 | 0.49 | 1.09 | 0.873 | 0.768 | 0.978 | 0.701 | 0.392 | 0.401 | 0.257 | 0.135
7 | H3255 | 0.902 | 0.936 | 0.938 | 0.974 | 0.502 | 0.477 | 0.487 | 0.604 | 0.646 | 0.283 | 0.236 | 0.255 | 0.246 | 0.237 | 0.441 | 0.417 | 0.409 | 0.313
8 | SK-MES-1 | 0.847 | 0.734 | 0.593 | 0.33 | 1.26 | 1.16 | 1.31 | 1.26 | 1.19 | 0.482 | 0.444 | 0.468 | 0.464 | 0.546 | 0.336 | 0.31 | 0.405 | 0.217
9 | NCI-H1437 | 1.17 | 1.2 | 1.09 | 0.745 | 1.08 | 1.08 | 1.11 | 1.16 | 1.08 | 0.896 | 0.791 | 0.781 | 0.811 | 0.748 | 0.444 | 0.424 | 0.377 | 0.486
10 | LU99A | 0.274 | 0.221 | 0.223 | 0.193 | 0.815 | 0.913 | 0.8 | 0.813 | 0.742 | 0.934 | 0.974 | 0.949 | 0.972 | 1.14 | 0.609 | 0.574 | 0.468 | 0.536
11 | HCC-827 | 0.603 | 0.61 | 0.566 | 0.334 | 1 | 0.977 | 0.995 | 1.03 | 1 | 0.19 | 0.159 | 0.185 | 0.189 | 0.188 | 0.299 | 0.298 | 0.207 | 0.249
12 | LK-2 | 0.188 | 0.159 |  | 0.189 | 1.01 | 0.797 | 0.888 | 0.79 | 0.687 | 0.946 | 0.883 | 0.839 | 0.939 | 0.718 | 0.288 | 0.248 |  | 0.221
13 | BEN | 0.303 | 0.307 | 0.231 | 0.361 | 0.0579 | 0.0527 | 0.0545 | 0.0678 | 0.0519 | 0.956 | 0.623 | 0.669 | 0.766 | 0.654 | 0.354 | 0.321 | 0.399 | 0.331
14 | NCI-H23 | 0.224 | 0.236 | 0.183 | 0.146 | 1.09 | 0.742 | 0.936 | 0.89 | 1.01 | 1.31 | 1.02 | 1.03 | 0.984 | 1.18 | 0.681 | 0.715 | 0.811 | 0.438
15 | NCI-H1395 | 0.606 | 0.648 | 0.665 | 0.508 | 1.4 | 1.26 | 1.23 | 1.27 | 0.924 | 1.14 | 1.18 | 1.19 | 1.01 | 0.966 | 0.418 | 0.377 | 0.408 | 0.413
16 | 201T | 1.12 | 1.07 | 1.04 | 1.05 | 1.24 | 1.21 | 1.22 | 1.27 | 1.16 | 0.975 | 1.04 | 1.01 | 0.997 | 1.02 | 0.586 | 0.528 | 0.609 | 0.662
17 | NCI-H2170 | 0.398 | 0.636 | 0.807 | 0.599 | 0.628 | 0.477 | 0.544 | 0.637 | 0.707 | 0.267 | 0.272 | 0.271 | 0.292 | 0.286 | 0.593 | 0.576 | 0.626 | 0.558
18 | NCI-H460 | 0.0297 | 0.0263 | 0.0291 | 0.0206 | 1.2 | 1.09 | 1.1 | 1.11 | 1.04 | 1.53 | 1.01 | 1.05 | 1.13 | 0.965 | 0.545 | 0.558 | 0.438 | 0.243
19 | HCC-15 | 0.293 | 0.413 | 0.343 | 0.214 | 0.754 | 0.693 | 0.692 | 0.693 | 0.705 | 0.963 | 0.841 | 0.843 | 0.832 | 0.888 | 0.669 | 0.584 | 0.433 | 0.191
20 | EPLC-272H | 0.226 | 0.216 | 0.37 | 0.0726 | 1.22 | 1.11 | 1.01 | 1.24 | 1.23 | 1 | 0.947 | 0.895 | 1 | 0.935 | 0.325 | 0.339 | 0.382 | 0.248

— the supplement of paper PMC10307832
